The values below come from PubChem BioAssay (NCI).

Some test systems named below: COLO 205 colon; K-562 leukemia; LOX IMVI melanoma; M14 melanoma; MOLT-4 leukemia; OVCAR-5 ovarian; PC-3 prostate; SNB-75 CNS; SR leukemia; T-47D breast.
Common to all, as to test: NCI tumour cell line growth inhibition, 48 h

Several values for one entry are separate records, joined by “and”; a condition that tells them apart may be missing. Identical values can stand only once.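 Five concentrations, 48 hours, 96-well plates. Here, GI50 denotes the concentration required for 50% inhibition of growth. TGI is the concentration that stops growth completely.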

Consider `CCc1ccc(Oc2nccc(-c3c(-c4ccc(F)cc4)ncn3C3CCNCC3)n2)cc1`, for which the GI50 in the experiment on COLO 205 colon was 4.24 µM; in the experiment on K-562 leukemia it was 4.64 µM; in the experiment on LOX IMVI melanoma, 4.78 µM; with M14 melanoma, 5.46 µM; in the experiment on MOLT-4 leukemia, 7.15 µM; with OVCAR-5 ovarian, 6.45 µM. The GI50 in the experiment on PC-3 prostate was 5.33 µM; in the experiment with SNB-75 CNS, 3.58 µM; in the experiment on SR leukemia it was 7.25 µM; in the experiment with T-47D breast, 4.3 µM. Further, the TGI stood at 7.93 µM in the experiment with COLO 205 colon; 10.9 µM in the experiment with K-562 leukemia; 10.2 µM in the experiment on LOX IMVI melanoma; 10.8 µM in the experiment on M14 melanoma; 15.8 µM in the experiment on MOLT-4 leukemia; 15.1 µM in the experiment on OVCAR-5 ovarian. Further, the TGI with PC-3 prostate came to 14.1 µM; with SNB-75 CNS it was 10.7 µM; in the experiment on SR leukemia, 18.1 µM; with T-47D breast, 11.6 µM.
Turning to `CC[C@@]1(O)C(=O)OCc2c1cc1n(c2=O)Cc2cc3c(Cl)c4c(cc3nc2-1)OCO4`, the GI50 in the experiment on COLO 205 colon was 1.05 µM; with K-562 leukemia it was less than 0.001 µM; in the experiment on LOX IMVI melanoma, less than 0.001 µM; in the experiment on M14 melanoma, less than 0.001 µM; with MOLT-4 leukemia, less than 0.001 µM; with OVCAR-5 ovarian, 0.985 µM and 0.193 µM. Also, the values for the GI50 in the experiment on SNB-75 CNS, in the experiment with SR leukemia and in the experiment on T-47D breast were 0.00288 µM, less than 0.001 µM and less than 0.001 µM, respectively. Moreover, the TGI was greater than 100 µM in the experiment with COLO 205 colon; greater than 100 µM with K-562 leukemia; 0.218 µM and 0.321 µM with LOX IMVI melanoma; 4.02 µM in the experiment on M14 melanoma; 1.69 µM in the experiment with OVCAR-5 ovarian; greater than 100 µM in the experiment on PC-3 prostate. Further, the TGI in the experiment on SNB-75 CNS and in the experiment on T-47D breast was greater than 100 µM in each case.
With `O=C(O)CC1C(=O)OC2C3COC(=O)c4cc(O)c(O)c(O)c4-c4c(cc(O)c(O)c4O)C(=O)OC2C(OC(=O)c2cc(O)c(O)c4c2C1C(O)C(=O)O4)C(OC(=O)c1cc(O)c(O)c(O)c1)O3` (configuration not stated), the TGI with COLO 205 colon was greater than 100 µM; with K-562 leukemia, greater than 100 µM; in the experiment on LOX IMVI melanoma, 31.5 µM; with M14 melanoma it was greater than 100 µM; in the experiment with MOLT-4 leukemia, 95 µM; in the experiment on OVCAR-5 ovarian it was greater than 100 µM. Further, the TGI was greater than 100 µM with PC-3 prostate, 41.5 µM in the experiment with SNB-75 CNS, 75.8 µM with SR leukemia and greater than 100 µM in the experiment with T-47D breast.
Take `CCOC(=O)c1c(C(F)(F)F)n([O-])c2ccc(Cl)cc2[n+]1=O`: the GI50 was 1.65 µM in the experiment with COLO 205 colon; 2.2 µM in the experiment on K-562 leukemia; 1.57 µM in the experiment with LOX IMVI melanoma; 2.02 µM in the experiment on M14 melanoma; 2.32 µM with MOLT-4 leukemia; 1.76 µM with OVCAR-5 ovarian. Also, the GI50 was 1.45 µM with PC-3 prostate, 1.43 µM with SNB-75 CNS, 1.55 µM in the experiment with SR leukemia and 2.03 µM in the experiment on T-47D breast. Moreover, the TGI with COLO 205 colon was determined as 3.29 µM; with K-562 leukemia, 4.37 µM; in the experiment on LOX IMVI melanoma, 3.08 µM; in the experiment with M14 melanoma it was 4.48 µM; in the experiment on MOLT-4 leukemia it was 5.18 µM; in the experiment with OVCAR-5 ovarian, 3.32 µM. Also, the TGI in the experiment with PC-3 prostate came to 3.02 µM; in the experiment on SNB-75 CNS, 5.36 µM; in the experiment with SR leukemia, 4.35 µM; in the experiment with T-47D breast, 4.38 µM.
In the case of `Nc1cccc2c1CN(C1CCC(=O)NC1=O)C2=O` (configuration not stated), the GI50 with COLO 205 colon, in the experiment with K-562 leukemia, in the experiment on LOX IMVI melanoma, in the experiment on M14 melanoma, with MOLT-4 leukemia and in the experiment on OVCAR-5 ovarian was greater than 100 µM throughout. The GI50 in the experiment on PC-3 prostate, with SNB-75 CNS, in the experiment on SR leukemia and in the experiment with T-47D breast was greater than 100 µM in each case. In addition, the TGI in the experiment with COLO 205 colon, in the experiment on K-562 leukemia, with LOX IMVI melanoma, in the experiment on M14 melanoma, in the experiment with MOLT-4 leukemia and in the experiment with OVCAR-5 ovarian was greater than 100 µM each time. Also, the TGI in the experiment with PC-3 prostate, in the experiment with SNB-75 CNS, with SR leukemia and in the experiment with T-47D breast was greater than 100 µM each time.
On to `Cc1ccc(-c2c3c(N)nc(-c4ccncc4)nc3nc3c2c(C)nn3-c2ccccc2)cc1`, for which the GI50 in the experiment with COLO 205 colon was 35.3 µM; in the experiment on K-562 leukemia it was 5 µM; in the experiment with LOX IMVI melanoma, 2.33 µM; in the experiment on M14 melanoma, 13.8 µM; in the experiment with MOLT-4 leukemia, greater than 37.5 µM; in the experiment on OVCAR-5 ovarian it was greater than 37.5 µM. Besides, the GI50 is 32.3 µM with PC-3 prostate, 1.64 µM in the experiment on SNB-75 CNS, 7.09 µM in the experiment with SR leukemia and 1.84 µM in the experiment with T-47D breast. Moreover, the TGI was greater than 37.5 µM in the experiment on COLO 205 colon; greater than 37.5 µM in the experiment with K-562 leukemia; 14.5 µM in the experiment with LOX IMVI melanoma; greater than 37.5 µM with M14 melanoma; greater than 37.5 µM with MOLT-4 leukemia; greater than 37.5 µM in the experiment with OVCAR-5 ovarian. The TGI in the experiment with PC-3 prostate was greater than 37.5 µM; in the experiment with SNB-75 CNS, 15.2 µM; with SR leukemia it was 23.8 µM; in the experiment with T-47D breast, greater than 37.5 µM.
As for `COc1cccc(C(C#N)NC23CC4CC(CC(C4)C2)C3)c1` (configuration not stated), the TGI with COLO 205 colon, in the experiment with K-562 leukemia, in the experiment on LOX IMVI melanoma, in the experiment with M14 melanoma, with MOLT-4 leukemia and with OVCAR-5 ovarian was greater than 100 µM in each case. Besides, the TGI in the experiment with PC-3 prostate, with SNB-75 CNS, in the experiment with SR leukemia and in the experiment with T-47D breast was greater than 100 µM in each case.
`O=C1c2ccccc2C(=O)c2c(NCCNCCO)ccc(NCCNCCO)c21`: the GI50 in the experiment on COLO 205 colon was 1.01 µM and 1.27 µM and 0.724 µM; in the experiment on K-562 leukemia, 2.47 µM and 2.08 µM and 2.38 µM; with LOX IMVI melanoma, 0.426 µM and 0.941 µM and 0.545 µM; with M14 melanoma it was 1.9 µM and 2.64 µM and 1.7 µM; in the experiment on MOLT-4 leukemia, 0.151 µM and 0.142 µM and 0.167 µM; in the experiment on OVCAR-5 ovarian, 2.5 µM and 2.29 µM and 2.35 µM. Further, the GI50 is 2.27 µM and 2.34 µM and 1.67 µM in the experiment with PC-3 prostate; 0.649 µM and 0.473 µM and 0.386 µM in the experiment on SNB-75 CNS; 1.49 µM and 0.492 µM and 0.267 µM with SR leukemia; 1.14 µM and 1.67 µM and 1.25 µM in the experiment with T-47D breast. Further, the TGI in the experiment with COLO 205 colon is 3 µM and 5.1 µM and 2.64 µM; in the experiment with K-562 leukemia, > 32.1 µM and 33.3 µM and 11.4 µM; in the experiment on LOX IMVI melanoma, 4.19 µM and 6.13 µM and 6.12 µM; in the experiment on M14 melanoma, 8.52 µM and 13.6 µM and 11.6 µM; in the experiment on MOLT-4 leukemia it was 59.7 µM and 11.5 µM; with OVCAR-5 ovarian, 9.5 µM and 10.9 µM and 11.5 µM. The TGI with PC-3 prostate was 17.8 µM and 13.4 µM and 7.54 µM; with SNB-75 CNS, 3.43 µM and 2.52 µM and 2.46 µM; in the experiment on SR leukemia, 13.2 µM and 36.8 µM; in the experiment on T-47D breast, 7.09 µM and 7.05 µM and 5.97 µM.
